# Tests used:
# [1] = system: HDACs (HeLa cell nuclear extracts); assay: HDAC enzymatic activity, Biomol Color de Lys system; assay type: biochemical; conditions: 1 hour, 25° C.
# Protocol: (E) an In Vitro Assay which Determines the Ability of a Test Compound to Inhibit HDAC Enzymatic Activity.
# HDAC inhibitory activity was assessed using the Biomol Color de Lys system (AK-500, Biomol, Plymouth Meeting, Pa.). Briefly, HeLa cell nuclear extracts were used as a source of HDACs. Different concentrations of test compounds were serially diluted in dimethylsulphoxide (DMSO) and added to HeLa cell nuclear extracts in the presence of a colorimetric artificial substrate. Final assay condition contained 50 mM Tris/Cl, pH 8.0, 137 mM NaCl, 2.7 mM KCl and 1 mM MgCl2. Reactions were carried in room temperature (25° C.) for 1 hour before addition of developer for termination. Relative enzyme activity was measured in the WALLAC Victor II 1420 microplate reader as fluorescence intensity (excitation: 350-380 nm; emission: 440-460 nm). Data were analyzed using GraphPad Prism (v4.0a) with a sigmoidal dose response curve fitting for IC50 calculation.
# PI3Kα (p110α/p85α) = biological target: T1, PI3Kα (p110α/p85α) (Homo sapiens, UniProt P42336); assay: PI3Kα ADP-Glo assay; assay type: biochemical; conditions: 20 μM PIP2, 10 μM ATP, 30 minutes
# T1 construct: GST (N); made in house; host or cells: Baculovirus-infected Sf9 cells
# Protocol: (A) an In Vitro Assay which Determines the Ability of a Test Compound to Inhibit PI3Kα.
# Activity of PI3Kα was measured using ADP-Glo assay from Promega. PI3Kα, a complex of N-terminal GST-tagged recombinant full-length human p110α (GenBank, Accession No. U79143) and N-terminal His tagged recombinant full length human p85a (GenBank Accession No. XM—043865) were co-expressed in a Baculovirus infected Sf9 cell expression system. The ADP-Glo assay was performed to measure the amount of ADP generated from ATP hydrolysis coupled with PIP2 phosphorylation by the purified recombinant PI3Kα (p110α/p85α). PI3Kα was incubated with 20 μM PIP2 substrate in the reaction buffer (50 mM HEPES, pH 7.4, 150 mM NaCl, 5 mM MgCl2, 1 mM DTT, 3 uM Naorthovanadate, 10 μM ATP and 0.5% DMSO) for 30 minutes at room temperature. The ADP generated was then detected by ADP-Glo assay from Promega, a luminescent ADP detection assay. The ADP-Glo assay is performed in two steps; first, after the kinase reaction, ADP-Glo Reagent is added to terminate the kinase reaction and deplete the remaining ATP. Second, the Kinase Detection Reagent is added to simultaneously convert ADP to ATP and allow the newly synthesized ATP to be measured using a luciferase/luciferin reaction.
# T1 sequence (P42336 whole entry): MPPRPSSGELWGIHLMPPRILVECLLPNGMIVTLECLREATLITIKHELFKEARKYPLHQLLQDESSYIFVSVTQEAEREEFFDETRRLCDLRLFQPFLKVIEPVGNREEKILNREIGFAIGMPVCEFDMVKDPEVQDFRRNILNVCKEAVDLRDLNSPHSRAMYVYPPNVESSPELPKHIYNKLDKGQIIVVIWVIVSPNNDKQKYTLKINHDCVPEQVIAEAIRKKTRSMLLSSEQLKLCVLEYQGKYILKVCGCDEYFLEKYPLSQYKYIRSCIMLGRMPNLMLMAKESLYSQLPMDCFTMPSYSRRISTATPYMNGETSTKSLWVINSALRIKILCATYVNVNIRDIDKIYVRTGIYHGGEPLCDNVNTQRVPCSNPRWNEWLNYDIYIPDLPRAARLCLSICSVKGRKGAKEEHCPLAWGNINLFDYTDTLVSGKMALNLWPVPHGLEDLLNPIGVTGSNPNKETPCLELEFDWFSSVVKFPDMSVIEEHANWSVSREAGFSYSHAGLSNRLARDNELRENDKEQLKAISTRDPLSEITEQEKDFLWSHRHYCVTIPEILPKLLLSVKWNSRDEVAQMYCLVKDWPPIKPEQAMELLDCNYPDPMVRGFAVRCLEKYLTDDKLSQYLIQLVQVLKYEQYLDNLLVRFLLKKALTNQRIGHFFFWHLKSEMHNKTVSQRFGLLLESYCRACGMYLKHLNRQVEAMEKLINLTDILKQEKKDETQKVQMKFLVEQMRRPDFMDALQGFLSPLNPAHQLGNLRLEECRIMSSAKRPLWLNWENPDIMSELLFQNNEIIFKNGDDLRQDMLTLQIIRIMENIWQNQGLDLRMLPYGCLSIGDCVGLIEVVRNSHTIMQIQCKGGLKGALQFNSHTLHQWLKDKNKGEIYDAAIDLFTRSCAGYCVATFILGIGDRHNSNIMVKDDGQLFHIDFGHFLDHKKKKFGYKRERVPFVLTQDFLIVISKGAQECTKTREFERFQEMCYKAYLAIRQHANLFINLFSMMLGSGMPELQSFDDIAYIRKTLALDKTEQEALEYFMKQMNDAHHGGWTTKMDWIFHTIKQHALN
# T1 sequence (P27986 whole entry partner): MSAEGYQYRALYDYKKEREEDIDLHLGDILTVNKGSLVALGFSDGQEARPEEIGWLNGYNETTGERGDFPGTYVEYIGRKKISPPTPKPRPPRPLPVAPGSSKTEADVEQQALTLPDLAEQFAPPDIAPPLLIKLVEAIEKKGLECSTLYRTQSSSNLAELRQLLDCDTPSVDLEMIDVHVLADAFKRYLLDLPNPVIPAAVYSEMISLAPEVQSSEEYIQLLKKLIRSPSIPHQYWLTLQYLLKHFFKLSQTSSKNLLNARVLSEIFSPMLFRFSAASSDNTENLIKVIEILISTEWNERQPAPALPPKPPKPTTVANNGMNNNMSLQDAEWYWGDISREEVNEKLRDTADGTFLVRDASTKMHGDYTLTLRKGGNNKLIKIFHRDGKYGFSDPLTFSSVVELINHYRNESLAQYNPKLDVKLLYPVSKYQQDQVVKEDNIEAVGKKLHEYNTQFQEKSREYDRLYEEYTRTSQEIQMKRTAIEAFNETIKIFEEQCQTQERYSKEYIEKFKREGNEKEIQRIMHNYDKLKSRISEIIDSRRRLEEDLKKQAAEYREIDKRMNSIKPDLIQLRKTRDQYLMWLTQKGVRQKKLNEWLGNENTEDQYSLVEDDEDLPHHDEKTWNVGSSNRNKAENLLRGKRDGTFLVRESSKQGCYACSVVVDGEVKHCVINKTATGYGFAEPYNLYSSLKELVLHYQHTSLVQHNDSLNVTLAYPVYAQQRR
SMILES,IC50 [1],IC50 (PI3Kα (p110α/p85α))
COc1ccc(Nc2nc(-c3cccc4[nH]ncc34)nc3cc(CN(C)c4ncc(C(=O)NO)cn4)sc23)cc1 [Compound 165],< 100 nM,> 10000 nM
COc1cccc(Nc2nc(-c3cccc4[nH]ncc34)nc3cc(CN(C)c4ncc(C(=O)NO)cn4)sc23)c1 [Compound 166],< 100 nM,> 10000 nM
COc1ccccc1Nc1nc(-c2cccc3[nH]ncc23)nc2cc(CN(C)c3ncc(C(=O)NO)cn3)sc12 [Compound 167],< 100 nM,100 to 1000 nM
CN(Cc1cc2nc(-c3ccc4[nH]ccc4c3)nc(N3CCOCC3)c2s1)c1ncc(C(=O)NO)cn1 [Compound 192],< 100 nM,100 to 1000 nM
CN(Cc1cc2nc(-c3ccc4c(c3)CCN4)nc(N3CCOCC3)c2s1)c1ncc(C(=O)NO)cn1 [Compound 193],< 100 nM,> 10000 nM
O=C(NO)c1ccc(CNCc2cc3nc(-c4cccc5[nH]ncc45)nc(N4CCOCC4)c3s2)cc1 [Compound 203],100 to 1000 nM,100 to 1000 nM
O=C(/C=C/c1ccc(CNCc2cc3nc(-c4cccc5[nH]ncc45)nc(N4CCOCC4)c3s2)cc1)NO [Compound 204],100 to 1000 nM,100 to 1000 nM
CN(Cc1cc2nc(-c3ccc(N)cc3)nc(N3CCOCC3)c2s1)c1ccc(C(=O)NO)cc1 [Compound 206],< 100 nM,100 to 1000 nM
Nc1ccc(-c2nc(N3CCOCC3)c3sc(CN4CCN(c5ncc(C(=O)NO)cn5)CC4)cc3n2)cc1 [Compound 207],< 100 nM,100 to 1000 nM
Nc1ccc(-c2nc(N3CCOCC3)c3sc(CNCc4ccc(C(=O)NO)cc4)cc3n2)cc1 [Compound 209],< 100 nM,> 10000 nM
Nc1ccc(-c2nc(N3CCOCC3)c3sc(CNCc4ccc(/C=C/C(=O)NO)cc4)cc3n2)cc1 [Compound 210],100 to 1000 nM,100 to 1000 nM
CCN(Cc1cc2nc(-c3ccc(N)cc3)nc(N3CCOCC3)c2s1)c1ncc(C(=O)NO)cn1 [Compound 215],< 100 nM,100 to 1000 nM
O=C(/C=C/c1cccc(S(=O)(=O)Nc2cc3nc(-c4cccc5[nH]ncc45)nc(N4CCOCC4)c3s2)c1)NO [Compound 216],< 100 nM,< 100 nM
COc1ncc(-c2nc(N3CCOCC3)c3sc(NS(=O)(=O)c4ccc(/C=C/C(=O)NO)cc4)cc3n2)cn1 [Compound 219],< 100 nM,< 100 nM
COc1ncc(-c2nc(N3CCOCC3)c3sc(NS(=O)(=O)c4cccc(/C=C/C(=O)NO)c4)cc3n2)cn1 [Compound 220],< 100 nM,< 100 nM
CNc1ccc(-c2nc(N3CCOCC3)c3sc(NS(=O)(=O)c4ccc(/C=C/C(=O)NO)cc4)cc3n2)cn1 [Compound 223],< 100 nM,< 100 nM
CNc1ccc(-c2nc(N3CCOCC3)c3sc(NS(=O)(=O)c4cccc(/C=C/C(=O)NO)c4)cc3n2)cn1 [Compound 224],< 100 nM,< 100 nM
"CNc1ccc(-c2nc(N3CCOCC3)c3sc(NCCCCC(=O)NO)cc3n2)cn1 [Compound 228, N-Hydroxy-5-(2-(6-(methylamino)pyridin-3-yl)-4-morpholino-thieno[3,2-d]pyrimidin-6-ylamino)pentanamide]",< 100 nM,< 100 nM
COc1ccc(-c2nc(N3CCOCC3)c3sc(NCCCCC(=O)NO)cc3n2)cn1 [Compound 230],< 100 nM,< 100 nM
O=C(CCCCNc1cc2nc(-c3cc(O)ccc3F)nc(N3CCOCC3)c2s1)NO [Compound 231],< 100 nM,< 100 nM
Nc1ccc(-c2nc(N3CCOCC3)c3sc(CN(CCO)c4ncc(C(=O)NO)cn4)cc3n2)cn1 [Compound 235],< 100 nM,< 100 nM
CNc1ccc(-c2nc(N3CCOCC3)c3sc(C(C)(C)N(C)c4ncc(C(=O)NO)cn4)cc3n2)cn1 [Compound 241],< 100 nM,100 to 1000 nM
CNc1ccc(-c2nc(N3CCOCC3)c3sc(N(C)c4ncc(C(=O)NO)cn4)cc3n2)cn1 [Compound 243],100 to 1000 nM,< 100 nM

SMILES,IC50 [1],IC50 (PI3Kα (p110α/p85α))
CNc1ccc(-c2nc(N3CCOCC3)c3sc(CN(CCO)c4ncc(C(=O)NO)cn4)cc3n2)cn1 [Compound 245],< 100 nM,< 100 nM
"COc1ccc(-c2nc(N3CCOCC3)c3sc(C(C)N(C)c4ncc(C(=O)NO)cn4)cc3n2)cn1 (centres unmarked) [Compound 247, N-hydroxy-2-((1-(2-(6-methoxypyridin-3-yl)-4-morpholino-thieno[3,2-d]pyrimidin-6-yl)ethyl)(methyl)amino)pyrimidine-5-carboxamide]",< 100 nM,< 100 nM
"COc1ccc(-c2nc(N3CCOCC3)c3sc(C(C)(C)Nc4ncc(C(=O)NO)cn4)cc3n2)cn1 [Compound 250, N-Hydroxy-2-(2-(2-(6-methoxypyridin-3-yl)-4-morpholino-thieno[3,2-d]pyrimidin-6-yl)propan-2-ylamino)pyrimidine-5-carboxamide]",< 100 nM,< 100 nM
COc1ccc(-c2nc(N3CCOCC3)c3sc(Nc4ncc(C(=O)NO)cn4)cc3n2)cn1 [Compound 253],100 to 1000 nM,< 100 nM
CN(Cc1cc2nc(-c3ccc(O)nc3)nc(N3CCOCC3)c2s1)c1ncc(C(=O)NO)cn1 [Compound 254],< 100 nM,100 to 1000 nM
CN(Cc1cc2nc(-c3ccc(OCc4ccccc4)nc3)nc(N3CCOCC3)c2s1)c1ncc(C(=O)NO)cn1 [Compound 260],< 100 nM,> 10000 nM
COc1ncc(-c2nc(N3CCOCC3)c3sc(C(C)(C)N(C)c4ncc(C(=O)NO)cn4)cc3n2)cn1 [Compound 264],< 100 nM,100 to 1000 nM
CN(Cc1cc2nc(-c3cnc(OCc4ccccc4)nc3)nc(N3CCOCC3)c2s1)c1ncc(C(=O)NO)cn1 [Compound 266],< 100 nM,100 to 1000 nM
"CC(C)(Nc1ncc(C(=O)NO)cn1)c1cc2nc(-c3ccc(N)cc3)nc(N3CCOCC3)c2s1 [Compound 269, 2-(2-(2-(4-Aminophenyl)-4-morpholinothieno[3,2-d]pyrimidin-6-yl)propan-2-ylamino)-N-hydroxypyrimidine-5-carboxamide]",< 100 nM,1000 to 10000 nM
CN(c1ncc(C(=O)NO)cn1)c1cc2nc(-c3ccc(N)cc3)nc(N3CCOCC3)c2s1 [Compound 272],< 100 nM,< 100 nM
Nc1ccc(-c2nc(N3CCOCC3)c3sc(Nc4ncc(C(=O)NO)cn4)cc3n2)cc1 [Compound 273],100 to 1000 nM,< 100 nM
Nc1ccc(-c2nc(N3CCOCC3)c3sc(CN(CCO)c4ncc(C(=O)NO)cn4)cc3n2)cc1F [Compound 277],< 100 nM,< 100 nM
CC(C)C(=O)Nc1ccc(-c2nc(N3CCOCC3)c3sc(CN(C)c4ncc(C(=O)NO)cn4)cc3n2)cc1 [Compound 286],< 100 nM,100 to 1000 nM
CC(C)OC(=O)Nc1ccc(-c2nc(N3CCOCC3)c3sc(CN(C)c4ncc(C(=O)NO)cn4)cc3n2)cc1 [Compound 287],< 100 nM,> 10000 nM
CN(Cc1cc2nc(-c3cccc(NS(C)(=O)=O)c3)nc(N3CCOCC3)c2s1)c1ncc(C(=O)NO)cn1 [Compound 288],< 100 nM,> 10000 nM
CN(Cc1cc2nc(-c3cccc(S(=O)(=O)CCO)c3)nc(N3CCOCC3)c2s1)c1ncc(C(=O)NO)cn1 [Compound 291],< 100 nM,> 10000 nM
C/C(=N/O)c1ccc(F)c(-c2nc(N3CCOCC3)c3sc(CN(C)c4ncc(C(=O)NO)cn4)cc3n2)c1 [Compound 298],< 100 nM,100 to 1000 nM
C/C(=N/O)c1cccc(-c2nc(N3CCOCC3)c3sc(CN(C)c4ncc(C(=O)NO)cn4)cc3n2)c1 [Compound 299],< 100 nM,100 to 1000 nM
CC(=O)c1cccc(-c2nc(N3CCOCC3)c3sc(CN(C)c4ncc(C(=O)NO)cn4)cc3n2)c1 [Compound 300],< 100 nM,100 to 1000 nM
CN(Cc1cc2nc(-c3cccc(C(C)(C)O)c3)nc(N3CCOCC3)c2s1)c1ncc(C(=O)NO)cn1 [Compound 302],< 100 nM,> 10000 nM
CN(Cc1cc2nc(-c3cccc(C(=O)O)c3)nc(N3CCOCC3)c2s1)c1ncc(C(=O)NO)cn1 [Compound 303],< 100 nM,100 to 1000 nM
CN(Cc1cc2nc(-c3cccc(C(=O)OC(C)(C)C)c3)nc(N3CCOCC3)c2s1)c1ncc(C(=O)NO)cn1 [Compound 304],< 100 nM,1000 to 10000 nM
CN(Cc1cc2nc(-c3cccc(S(N)(=O)=O)c3)nc(N3CCOCC3)c2s1)c1ncc(C(=O)NO)cn1 [Compound 305],< 100 nM,100 to 1000 nM

# Source: US20130102595A1 (Curis, Inc., priority 2011, published 2013)
